Data: patent publication US20160159861A1, “APJ Receptor Compounds” (priority 2013, published 2016)
Like-named read-outs stand apart in the source and are kept apart here. Peptide text beside a SMILES is read from it.

Assays:
Assay type in all cases: cell-based
[1] = molecular target: T1, human APJ receptor (hAPJ) (Homo sapiens, UniProt P35414); assay: HTRF cAMP assay: inhibition of NKH477-stimulated cAMP in HEK cells stably expressing hAPJ; details: for Emax: HEK293, read-out: % IA, bound stated; for % IA (cAMP inhibition, hAPJ HEK): intrinsic activity; for Ranking: composite class of EC50 (hAPJ), % IA and % histamine or formal (+) charge; for inhibition of NKH477-stimulated increase in cAMP, dose dependent: concentration response curves, FIGS. 1 and 2, HEK cells stably expressing APJ
T1 construct: expressed in transfected cells
T1 sequence (P35414 1-380): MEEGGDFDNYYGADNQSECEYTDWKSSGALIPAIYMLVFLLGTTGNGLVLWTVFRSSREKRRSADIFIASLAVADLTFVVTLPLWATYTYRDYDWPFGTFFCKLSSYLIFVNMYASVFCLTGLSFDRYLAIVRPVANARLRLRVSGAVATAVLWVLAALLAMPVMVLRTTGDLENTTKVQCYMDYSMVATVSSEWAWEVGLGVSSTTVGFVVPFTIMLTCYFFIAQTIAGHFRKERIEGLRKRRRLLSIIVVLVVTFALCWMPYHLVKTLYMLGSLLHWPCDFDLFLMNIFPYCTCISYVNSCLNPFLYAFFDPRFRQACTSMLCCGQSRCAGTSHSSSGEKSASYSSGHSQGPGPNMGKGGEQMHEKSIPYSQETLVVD
In short: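 HEK cells stably expressing hAPJ, induced with 1 nG/mL doxycycline and seeded overnight at 40 k/well. cAMP read by HTRF competitive immunoassay using cryptate-labeled anti-cAMP antibody and d2-labeled cAMP.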

[2] = system: rat peritoneal cells; assay: Ex vivo histamine release assay in rat peritoneal cells (vs. Compound 48/80)
In short: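 Resident peritoneal cells were lavaged from male Sprague Dawley rats and kept in HBSS/20 mM HEPES/0.2% BSA at 25,000 cells/well. They were exposed for 30 min at room temperature to compound at 3 points (100, 10, 1 μM DMSO stocks, 1% DMSO final). Released histamine was measured by HTRF and normalised to total histamine after Triton lysis. Compound 48/80 was the reference.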

[3] = molecular target: CXCR4 receptor (Homo sapiens, UniProt P61073); assay: Activity at CXCR4 receptor (selectivity, Gi-coupled GPCR); details: FIGS. 6A-6C, selectivity vs. hAPJ
CXCR4 receptor, sequence (P61073 whole entry): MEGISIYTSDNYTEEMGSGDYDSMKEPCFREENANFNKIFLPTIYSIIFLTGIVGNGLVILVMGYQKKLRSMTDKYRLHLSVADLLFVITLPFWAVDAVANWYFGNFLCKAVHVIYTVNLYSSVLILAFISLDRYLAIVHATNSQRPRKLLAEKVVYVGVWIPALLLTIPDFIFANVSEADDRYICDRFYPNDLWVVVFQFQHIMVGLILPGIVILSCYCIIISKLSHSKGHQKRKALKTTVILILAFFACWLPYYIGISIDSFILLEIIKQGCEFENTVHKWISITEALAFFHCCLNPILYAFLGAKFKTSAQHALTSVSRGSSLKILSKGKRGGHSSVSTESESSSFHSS

[4] = molecular target: T2, APJ receptor (Homo sapiens, UniProt P35414); assay: Cellul'erk ERK phosphorylation assay in APJ-TREX cells; design: expressed in transfected cells; host or cells: Human TRex (APJ-TREX) cells, doxycycline-inducible expression; details: relative to max pyr-apelin-13 activity at 100 nM; 3 or 0.3 μM compound, 5 minutes
T2 sequence (P35414 1-380): T1 sequence (P35414 1-380)
Description: Experiments were performed to test activation of the ERK and p38 pathways using the Cellul'erk and the Phospho-p38 MAPK (Thr180/Tyr182) assay kits (Cisbio). APJ-TREX cells were optimized for signaling (pre-serum starved overnight with low FBS serum (2% FBS media) with 1 ng/ml doxycyclin (for induction of APJ receptor expression), 50,000 cells, 5 minutes agonist activation for ERK activity). Cells were pretreated with 3 or 0.3 μM pepducin compound for 5 minutes and the reaction was stopped by lysis buffer. Lysates are then transferred to the assay plate for the detection of phosphorylated ERK or p38 by HTRF reagents.

[5] = HTRF cAMP Assay, per data of Table 6
[6] = HTRF cAMP Assay, per data of Table 6, read-out: EC50 (hAPJ), inhibition of cAMP production, bound stated
[7] = Table 6, hAPJ HEK cells, NKH477-stimulated cAMP, read-out: EC50 (cAMP inhibition, hAPJ HEK)

| Compound | Emax [1, 5] | EC50 [1, 6] | EC50 [1, 7] | % IA (cAMP inhibition, hAPJ HEK) ([1]; Table 6, hAPJ HEK cells) | Ranking [1] | inhibition of NKH477-stimulated increase in cAMP, dose dependent [1] | Histamine (% vs. 48/80) [2] | activity at the CXCR4 receptor [3] | Average % Activity (ERK agonist activity) [4] |
| --- | --- | --- | --- | --- | --- | --- | --- | --- | --- |
| CCCCCCCCCCCCCCCC(=O)N[C@@H](CC(=O)O)C(=O)N[C@H](C(=O)N[C@@H](Cc1ccccc1)C(=O)N[C@@H](CCC(N)=O)C(=O)N[C@@H](CO)C(=O)N[C@@H](CO)C(=O)N[C@@H](CCC(=O)O)C(=O)N[C@H](CCCCN)C(=O)N[C@@H](CCCNC(=N)N)C(=O)N[C@@H](CCCNC(=N)N)C(=O)N[C@@H](CO)C(=O)N[C@@H](C)C(=O)N[C@@H](CC(=O)O)C(=O)N[C@@H](CCC(N)=O)C(=O)N[C@@H](Cc1ccccc1)C(=O)N[C@H](C(N)=O)[C@@H](C)CC)C(C)C [Compound 12] (HELM PEPTIDE1{[CCCCCCCCCCCCCCCC(=O)[*:2]].D.V.F.Q.S.S.E.[dK].R.R.S.A.D.Q.F.I.[am]}$$$$V2.0) | ≥ 80% | ≤ 25 nM | 12 nM | 97% | ***** (EC50≦25 nM (hAPJ), % IA≧80% and either % histamine≦35% or formal (+) charge≦1) | inhibited | 9% | lack of dose-responsive activity | 51.8% |
| CCCCCCCCCCCCCCCC(=O)N[C@@H](CC(=O)O)C(=O)N[C@H](C(=O)N[C@@H](Cc1ccccc1)C(=O)N[C@@H](CCCNC(=N)N)C(=O)N[C@@H](CO)C(=O)N[C@@H](CO)C(=O)N[C@@H](CCC(=O)O)C(=O)N[C@H](CCCCN)C(=O)N[C@@H](CCCNC(=N)N)C(=O)N[C@@H](CCCNC(=N)N)C(=O)N[C@@H](CO)C(=O)N[C@@H](C)C(=O)N[C@@H](CC(=O)O)C(=O)N[C@@H](CCC(N)=O)C(=O)N[C@@H](Cc1ccccc1)C(=O)N[C@H](C(N)=O)[C@@H](C)CC)C(C)C [Compound 13] (HELM PEPTIDE1{[CCCCCCCCCCCCCCCC(=O)[*:2]].D.V.F.R.S.S.E.[dK].R.R.S.A.D.Q.F.I.[am]}$$$$V2.0) | ≥ 80% | ≤ 25 nM | 6 nM | 96% | ***** (EC50≦25 nM (hAPJ), % IA≧80% and either % histamine≦35% or formal (+) charge≦1) | inhibited | 17% | lack of dose-responsive activity | 44.0% |
